Measured values as given in patent US20220273759A1, “PHARMACEUTICAL ASSOCIATION FOR CONVERTING A NEOPLASTIC CELL INTO A NON-NEOPLASTIC CELL AND USES THEREOF” (HISTIDE AG, priority 2015, published 2022).
Where no end group is shown, it is not given here.

Key:
[1] = test system: neoplastic cells (osteosarcoma cells); test: Immunofluorescence visualization of neoplastic cells cultured on a polymer scaffold covalently modified with a GFR-binding compound and a RGD peptide; assay type: cell-based; conditions: polymer scaffold covalently modified with a mixture of GFR-binding compound and RGD peptide; after 24 hours of culture
Experimental: (b) Immunofluorescence visualization of a neoplastic cell (osteosarcoma cells) after silencing integrins α3β1 by using shRNAs, after 24 hours of culture on a polymer scaffold covalently grafted with RGD peptides. […] The actin filaments were immunostained by using Alexa 488-phalloidin. The focal adhesions were represented by immunostaining with anti-vinculin. The nucleus was stained with DAPI and is represented by a circle in the center of the cell. Scale bar: 5 μm. (c) Immunofluorescence visualization of neoplastic cells cultured on a polymer scaffold covalently modified with a mixture comprising a GFR-binding compound as defined herein (SEQ ID NO: 2) and a RGD peptide, after 24 hours of culture. Scale bar: 500 μm. […] The actin filaments were immunostained by using Alexa 488-phalloidin. The focal adhesions were represented by immunostaining with anti-vinculin. The nucleus was stained with DAPI and is represented by a circle in the center of the cell.

[2] = Stability of non-covalent association (release of FITC-labelled GFR-binding compound from carrier); assay type: physicochemical; conditions: after 3, 7 or 10 days
Experimental: Non-covalent associations of the bioactive carriers were performed under atmospheric conditions (air) at room temperature (about 22° C.). The non-covalent association was carried out using a mixture of GFR-binding compound of SEQ ID NO: 9 (concentration of 1×10^−3 M) with the apatite ceramics or a mixture of GFR-binding compound of SEQ ID NO: 10 (concentration of 1×10^−3 M) with the type-I collagen sponge. The non-covalent pharmaceutical associations were characterized by covalently associating fluorescent GFR-binding compounds of SEQ ID NO: 9 and 10 (covalently bound to fluorescein isothiocyanate (FITC), FIG. 1).

Row | Substance | morphology of neoplastic cells (immunofluorescence: actin, vinculin, DAPI) [1] | release of GFR-binding compounds from the carrier [2]
1 | SEQ ID NO: 2: GFR-binding compound as defined herein, covalently grafted on a polymer scaffold in a mixture with a RGD peptide (YVPKPSSAPTKLNAISTLYF; also: covalently grafted on a polymer scaffold) | Spheroid-like structures of neoplastic cells become predominant | –
2 | SEQ ID NO: 10: GFR-binding compound of the sequence listing, non-covalently associated with type-I collagen sponge; sequence not shown in this part (KVGKASSVPTKLSAISTLYL; Non-cyclic GFR-binding peptide) | – | no significant release
